Experimental data: patent US20080125432A1 (Devgen NV, priority 2004, published 2008)

Experiments:
isolated rat left atria = test: Ex-vivo organ study: functional refractory period in isolated rat left atria; conditions: conc 10^−5 mol/l
Source text: The compounds were checked for their effect on the force of contraction, stimulation threshold and for the Functional Refractory Period (FRP) in isolated rat left atria (Rat LA). Rat left atria functionally express the Kv4.3 ion channel, producing the Ito current of the action potential. […] The guinea pig action potential is dominated by hERG like ion channels for the refractory currents. Consequently, activity of hERG channels in vivo should be seen in GP pap muscle preparations.
Left atria were mounted vertically in a two-chambered organ bath containing 100 ml of buffer solution (in mM: NaH2PO4 0.6, MgSO4 0.6, KCl 4.7, NaHCO3 25, glucose 4.5, NaCl-120, CaCl2 2.4). […] The isometric force of the preparations was measured by force transducers, connected to amplifiers, documented by a pen recorder and fed into a computer for evaluation. Force of contraction (FC), threshold stimulus (TS) and the functional refractory period (FRP) were measured at baseline (pre), 20 min after addition of compound, and after washout at the end of the experiment. Threshold stimulus, representing excitability of the tissue, was assessed by varying the voltage applied for electrical stimulation. […] The functional refractory period, representing the time needed for repolarization, was assessed by applying extra stimuli at varying time intervals from the preceding regular pacing stimulus. […]

IK1 (Kir2.1) = target: T1, IK1 (Kir2.1) (Homo sapiens, UniProt P63252); test: Whole-cell patch clamp in human atrial myocytes: IK1; type: cell-based; conditions: n = 3 cells
T1 construct: endogenous in cells; host or cells: freshly isolated human atrial myocytes
T1 sequence (P63252 1-427): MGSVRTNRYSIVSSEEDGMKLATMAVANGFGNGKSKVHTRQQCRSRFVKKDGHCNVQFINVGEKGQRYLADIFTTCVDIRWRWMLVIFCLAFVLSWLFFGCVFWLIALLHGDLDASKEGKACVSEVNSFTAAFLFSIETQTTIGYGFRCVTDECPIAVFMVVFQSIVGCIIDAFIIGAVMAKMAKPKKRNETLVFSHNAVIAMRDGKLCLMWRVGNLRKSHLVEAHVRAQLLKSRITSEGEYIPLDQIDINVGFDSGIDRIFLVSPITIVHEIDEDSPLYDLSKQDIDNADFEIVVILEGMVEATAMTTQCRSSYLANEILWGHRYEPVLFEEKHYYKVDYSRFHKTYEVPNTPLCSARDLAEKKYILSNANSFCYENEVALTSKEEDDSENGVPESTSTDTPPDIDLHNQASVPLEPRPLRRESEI
Description: The blocking profile of the compounds of the invention is determined on the following channels of the human atrial myocytes: INa, Ito, Isus and IK1 channel currents.
Human atrial myocytes: Myocytes were prepared from specimens with grossly normal anatomical aspect, excised from hearts of patients with normal P-wave electrocardiogram, undergoing bypass surgery. Human atrial sample were obtained following approval by the ethical committee. […]
Experiments were performed at room temperature (20-25° C.) for INa and at 32-34° C. for Ito, Isus, IK1. Currents were measured using the whole-cell variant of the patch clamp method. […]
After rupture of the cell membrane to enter the whole-cell mode, current amplitude and kinetics were allowed to stabilize for 3-7 min before initiating the experimental procedure. K^+ currents recorded from human atrial myocytes were elicited by a 500 ms pulse to +60 mV from a holding potential of −50 mV for Ito and Isus. Ito was measured as a peak current amplitude whereas Isus as a current present at the end of the 500 ms voltage pulse. In addition, the area under the curve, before and after compound, were measured over the course of the pulse period. […]

Block at 10 μM in %: IK1 (Kir2.1) (IK1 (Kir2.1)): −2.7 ± 2.0%
Structure (SMILES): COc1ccccc1Nc1nc(C)c(C(=O)N[C@H]2CCC[C@@H]2OCc2ccccc2)s1 [Compound 68, 2-(2-methoxy-phenylamino)-4-methyl-thiazole-5-carboxylic acid (1S,2S)-2-(benzyloxycyclopent-1-yl) amide]
dFRP Rat (isolated rat left atria): 13 ms
